Results: PubChem BioAssay AID328 (DTP/NCI, 2004)
Several values for one entry are separate records, joined by “and”; a condition that tells them apart may be missing. Identical values can stand only once. Toxic doses and inconclusive results are not listed. The calls were made as follows: active = survival T/C of 150% or more; inactive = T/C below 125% in these data.

Tested on: BDF1 mice, P388 leukemia ip, median survival T/C
Assay: NCI In Vivo Anticancer Drug Screen. Data for tumor model P388 Leukemia (intraperitoneal) in B6D2F1 (BDF1) mice
Settings: endpoint: median survival time, higher = longer survival
In short: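 Antitumour effect was judged in vivo: survival in drug-treated mice, normalised to that of vehicle-dosed controls, gives the reported T/C.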

[1] = dose: 100.0 mg/kg/injection, schedule: Q01DX009 (ip), vehicle: saline with Tween-80
[2] = dose: 200.0 mg/kg/injection, schedule: Q01DX009 (ip), vehicle: saline with Tween-80
[3] = dose: 400.0 mg/kg/injection, schedule: Q01DX009 (ip), vehicle: saline with Tween-80
[4] = dose: 100.0 mg/kg/injection, schedule: Q04DX003 (ip), vehicle: Klucel (hydroxypropylcellulose) (HPC)
[5] = dose: 200.0 mg/kg/injection, schedule: Q04DX003 (ip), vehicle: Klucel (hydroxypropylcellulose) (HPC)
[6] = dose: 100.0 mg/kg/injection, schedule: Q01DX009 (ip), vehicle: saline
[7] = dose: 100.0 mg/kg/injection, schedule: Q04DX003 (ip), vehicle: saline with Tween-80
[8] = dose: 200.0 mg/kg/injection, schedule: Q04DX003 (ip), vehicle: saline with Tween-80
[9] = dose: 50.0 mg/kg/injection, schedule: Q01DX009 (ip), vehicle: saline with Tween-80

Measured: T/C

CC(C)=CC(=O)OCC[N+](C)(C)C
inactive: dose: 12.5 mg/kg/injection, schedule: Q01DX009 (ip), vehicle: saline 97 % of control | dose: 25.0 mg/kg/injection, schedule: Q01DX009 (ip), vehicle: saline 90 % of control

COc1cc(NC(=O)CC(C)=O)c(OC)cc1Cl
inactive: [1] 95 % of control | [2] 100 % of control | [3] 104 % of control

CC(=O)Nc1ccc2[nH]c(C)cc(=O)c2c1
inactive: dose: 25.0 mg/kg/injection, schedule: Q01DX009 (ip), vehicle: water 94 % of control | dose: 50.0 mg/kg/injection, schedule: Q01DX009 (ip), vehicle: water 94 % of control | dose: 50.0 mg/kg/injection, schedule: Q04DX003 (ip), vehicle: water 101 % of control | dose: 100.0 mg/kg/injection, schedule: Q01DX009 (ip), vehicle: water 92 % of control | dose: 100.0 mg/kg/injection, schedule: Q04DX003 (ip), vehicle: water 106 % of control | dose: 200.0 mg/kg/injection, schedule: Q01DX009 (ip), vehicle: water 91 % of control | dose: 200.0 mg/kg/injection, schedule: Q04DX003 (ip), vehicle: water 95 % of control | dose: 400.0 mg/kg/injection, schedule: Q01DX009 (ip), vehicle: water 92 % of control | dose: 400.0 mg/kg/injection, schedule: Q04DX003 (ip), vehicle: water 113 % of control

CC(=O)Nc1ccc2c([N+](=O)[O-])cccc2c1-c1c(NC(C)=O)ccc2c([N+](=O)[O-])cccc12
inactive: dose: 100.0 mg/kg/injection, schedule: Q01DX009 (ip), vehicle: Klucel (hydroxypropylcellulose) (HPC) 110 % of control | [4] 109 % of control | [5] 100 % of control | dose: 400.0 mg/kg/injection, schedule: Q01DX009 (ip), vehicle: Klucel (hydroxypropylcellulose) (HPC) 95 % of control | dose: 400.0 mg/kg/injection, schedule: Q04DX003 (ip), vehicle: Klucel (hydroxypropylcellulose) (HPC) 100 % of control

CCCCCC[N+]1(C)CC2C3C=CC(C3)C2C1 (stereo not given)
inactive: dose: 75.0 mg/kg/injection, schedule: Q01DX009 (ip), vehicle: saline 90 % of control

S=C(S)N1CCOCC1
inactive: [6] 91 % of control | dose: 100.0 mg/kg/injection, schedule: Q04DX003 (ip), vehicle: saline 100 % of control | dose: 200.0 mg/kg/injection, schedule: Q01DX009 (ip), vehicle: saline 100 % of control | dose: 200.0 mg/kg/injection, schedule: Q04DX003 (ip), vehicle: saline 95 % of control | dose: 400.0 mg/kg/injection, schedule: Q01DX009 (ip), vehicle: saline 95 % of control | dose: 400.0 mg/kg/injection, schedule: Q04DX003 (ip), vehicle: saline 86 % of control

O=[N+]([O-])c1cc(S(=O)(=O)NCc2ccco2)ccc1N/N=C/c1ccccn1
inactive: dose: 0.78 mg/kg/injection, schedule: Q01DX009 (ip), vehicle: saline with Tween-80 99 % of control | dose: 1.56 mg/kg/injection, schedule: Q01DX009 (ip), vehicle: saline with Tween-80 99 % of control | dose: 3.12 mg/kg/injection, schedule: Q01DX009 (ip), vehicle: saline with Tween-80 95 % of control

Cc1cccc2c(Nc3ccc(NS(C)(=O)=O)cc3)c3ccccc3nc12
inactive: dose: 0.88 mg/kg/injection, schedule: Q01DX009 (ip), vehicle: saline with Tween-80 123 % of control | dose: 2.93 mg/kg/injection, schedule: Q04DX003 (ip), vehicle: saline with Tween-80 118 % of control
active: dose: 3.0 mg/kg/injection, schedule: Q01DX009 (ip), vehicle: saline with Tween-80 153 % of control | dose: 5.0 mg/kg/injection, schedule: Q01DX009 (ip), vehicle: saline with Tween-80 166 % of control | dose: 10.0 mg/kg/injection, schedule: Q01DX009 (ip), vehicle: saline with Tween-80 203 % of control | dose: 20.0 mg/kg/injection, schedule: Q01DX009 (ip), vehicle: saline with Tween-80 197 % of control | dose: 20.0 mg/kg/injection, schedule: Q04DX003 (ip), vehicle: saline with Tween-80 150 % of control | dose: 22.0 mg/kg/injection, schedule: Q04DX003 (ip), vehicle: saline with Tween-80 168 % of control | dose: 30.0 mg/kg/injection, schedule: Q04DX003 (ip), vehicle: saline with Tween-80 154 % of control | dose: 33.0 mg/kg/injection, schedule: Q04DX003 (ip), vehicle: saline with Tween-80 181 % of control | dose: 50.0 mg/kg/injection, schedule: Q04DX003 (ip), vehicle: saline with Tween-80 245 % of control | dose: 75.0 mg/kg/injection, schedule: Q04DX003 (ip), vehicle: saline with Tween-80 259 % of control | [7] 204 % of control | [8] 272 % of control

COc1ccc2c(c1OC)CN1CCc3cc4c(cc3C1=C2)OCO4
inactive: dose: 50.0 mg/kg/injection, schedule: Q01DX005 (ip), vehicle: saline with Tween-80 102 % of control | dose: 100.0 mg/kg/injection, schedule: Q01DX005 (ip), vehicle: saline with Tween-80 90 % of control | dose: 200.0 mg/kg/injection, schedule: Q01DX005 (ip), vehicle: saline with Tween-80 91 % of control

CC1(C)CNC2OC1NCC2(C)C
inactive: dose: 100.0 mg/kg/injection, schedule: Q01DX001 (ip), vehicle: saline sonified 100 % of control | dose: 200.0 mg/kg/injection, schedule: Q01DX001 (ip), vehicle: saline sonified 100 % of control | dose: 400.0 mg/kg/injection, schedule: Q01DX001 (ip), vehicle: saline sonified 104 % of control

CCCCNc1nc(N)nc(Nc2ccc(Br)cc2)c1N=O
inactive: dose: 25.0 mg/kg/injection, schedule: Q01DX009 (ip), vehicle: saline with Tween-80 90 % of control | [9] 90 % of control | dose: 100.0 mg/kg/injection, schedule: Q01DX001 (ip), vehicle: Klucel (hydroxypropylcellulose) (HPC) 100 % of control | [1] 90 % of control and 91 % of control | [4] 120 % of control | [7] 86 % of control | dose: 132.0 mg/kg/injection, schedule: Q04DX003 (ip), vehicle: Klucel (hydroxypropylcellulose) (HPC) 100 % of control and 109 % of control | dose: 200.0 mg/kg/injection, schedule: Q01DX001 (ip), vehicle: Klucel (hydroxypropylcellulose) (HPC) 91 % of control | [5] 104 % of control | [8] 104 % of control | dose: 300.0 mg/kg/injection, schedule: Q04DX003 (ip), vehicle: Klucel (hydroxypropylcellulose) (HPC) 90 % of control and 113 % of control | dose: 400.0 mg/kg/injection, schedule: Q01DX001 (ip), vehicle: Klucel (hydroxypropylcellulose) (HPC) 91 % of control | dose: 400.0 mg/kg/injection, schedule: Q04DX003 (ip), vehicle: saline with Tween-80 100 % of control

COc1ccccc1Cc1c(OC)cc(OC)c(C(=O)CCc2ccccc2)c1O
inactive: dose: 0.5 mg/kg/injection, schedule: Q01DX009 (ip), vehicle: saline 103 % of control | dose: 1.0 mg/kg/injection, schedule: Q01DX009 (ip), vehicle: saline 106 % of control

CCCCCC[C@H]([C@H](C)O)n1cnc2c(N)ncnc21
inactive: dose: 15.0 mg/kg/injection, schedule: Q01DX009 (ip), vehicle: saline 105 % of control | dose: 22.0 mg/kg/injection, schedule: Q01DX009 (ip), vehicle: saline 105 % of control | dose: 33.0 mg/kg/injection, schedule: Q01DX009 (ip), vehicle: saline 104 % of control | dose: 50.0 mg/kg/injection, schedule: Q01DX009 (ip), vehicle: saline 101 % of control

CC1(C)c2ccccc2C(C)(C(Cl)(Cl)Cl)c2ccc(Cl)cc21 (stereo not given)
inactive: [9] 96 % of control | [1] 99 % of control | [2] 92 % of control | [3] 97 % of control

O=C1NC(=O)C(F)(F)C(O)N1 (stereo not given)
inactive: dose: 12.0 mg/kg/injection, schedule: Q01DX009 (ip), vehicle: saline 115 % of control
active: dose: 65.0 mg/kg/injection, schedule: Q01DX009 (ip), vehicle: saline 154 % of control | [6] 154 % of control | dose: 150.0 mg/kg/injection, schedule: Q01DX009 (ip), vehicle: saline 166 % of control | dose: 220.0 mg/kg/injection, schedule: Q01DX009 (ip), vehicle: saline 179 % of control | dose: 320.0 mg/kg/injection, schedule: Q01DX009 (ip), vehicle: saline 195 % of control

CC(CN)OCc1ccccc1 (stereo not given)
inactive: dose: 12.5 mg/kg/injection, schedule: Q04DX003 (ip), vehicle: saline 100 % of control | dose: 50.0 mg/kg/injection, schedule: Q04DX003 (ip), vehicle: saline 100 % of control
